Laboratory results published in ChEMBL document CHEMBL1201862, “PubChem BioAssay data set” (2004).
Where “and” joins values, the source holds several entries; their conditions need not be identical. Identical values can stand only once. Calls of active or inactive are those of the source.

How the values were obtained:
[1] = molecular target: T1, Voltage-gated N-type calcium channel alpha-1B subunit/Amyloid beta A4 precursor protein-binding family A member 1 (Homo sapiens, UniProt Q00975+Q02410); type: protein assay
T1 sequence (Q00975 whole entry): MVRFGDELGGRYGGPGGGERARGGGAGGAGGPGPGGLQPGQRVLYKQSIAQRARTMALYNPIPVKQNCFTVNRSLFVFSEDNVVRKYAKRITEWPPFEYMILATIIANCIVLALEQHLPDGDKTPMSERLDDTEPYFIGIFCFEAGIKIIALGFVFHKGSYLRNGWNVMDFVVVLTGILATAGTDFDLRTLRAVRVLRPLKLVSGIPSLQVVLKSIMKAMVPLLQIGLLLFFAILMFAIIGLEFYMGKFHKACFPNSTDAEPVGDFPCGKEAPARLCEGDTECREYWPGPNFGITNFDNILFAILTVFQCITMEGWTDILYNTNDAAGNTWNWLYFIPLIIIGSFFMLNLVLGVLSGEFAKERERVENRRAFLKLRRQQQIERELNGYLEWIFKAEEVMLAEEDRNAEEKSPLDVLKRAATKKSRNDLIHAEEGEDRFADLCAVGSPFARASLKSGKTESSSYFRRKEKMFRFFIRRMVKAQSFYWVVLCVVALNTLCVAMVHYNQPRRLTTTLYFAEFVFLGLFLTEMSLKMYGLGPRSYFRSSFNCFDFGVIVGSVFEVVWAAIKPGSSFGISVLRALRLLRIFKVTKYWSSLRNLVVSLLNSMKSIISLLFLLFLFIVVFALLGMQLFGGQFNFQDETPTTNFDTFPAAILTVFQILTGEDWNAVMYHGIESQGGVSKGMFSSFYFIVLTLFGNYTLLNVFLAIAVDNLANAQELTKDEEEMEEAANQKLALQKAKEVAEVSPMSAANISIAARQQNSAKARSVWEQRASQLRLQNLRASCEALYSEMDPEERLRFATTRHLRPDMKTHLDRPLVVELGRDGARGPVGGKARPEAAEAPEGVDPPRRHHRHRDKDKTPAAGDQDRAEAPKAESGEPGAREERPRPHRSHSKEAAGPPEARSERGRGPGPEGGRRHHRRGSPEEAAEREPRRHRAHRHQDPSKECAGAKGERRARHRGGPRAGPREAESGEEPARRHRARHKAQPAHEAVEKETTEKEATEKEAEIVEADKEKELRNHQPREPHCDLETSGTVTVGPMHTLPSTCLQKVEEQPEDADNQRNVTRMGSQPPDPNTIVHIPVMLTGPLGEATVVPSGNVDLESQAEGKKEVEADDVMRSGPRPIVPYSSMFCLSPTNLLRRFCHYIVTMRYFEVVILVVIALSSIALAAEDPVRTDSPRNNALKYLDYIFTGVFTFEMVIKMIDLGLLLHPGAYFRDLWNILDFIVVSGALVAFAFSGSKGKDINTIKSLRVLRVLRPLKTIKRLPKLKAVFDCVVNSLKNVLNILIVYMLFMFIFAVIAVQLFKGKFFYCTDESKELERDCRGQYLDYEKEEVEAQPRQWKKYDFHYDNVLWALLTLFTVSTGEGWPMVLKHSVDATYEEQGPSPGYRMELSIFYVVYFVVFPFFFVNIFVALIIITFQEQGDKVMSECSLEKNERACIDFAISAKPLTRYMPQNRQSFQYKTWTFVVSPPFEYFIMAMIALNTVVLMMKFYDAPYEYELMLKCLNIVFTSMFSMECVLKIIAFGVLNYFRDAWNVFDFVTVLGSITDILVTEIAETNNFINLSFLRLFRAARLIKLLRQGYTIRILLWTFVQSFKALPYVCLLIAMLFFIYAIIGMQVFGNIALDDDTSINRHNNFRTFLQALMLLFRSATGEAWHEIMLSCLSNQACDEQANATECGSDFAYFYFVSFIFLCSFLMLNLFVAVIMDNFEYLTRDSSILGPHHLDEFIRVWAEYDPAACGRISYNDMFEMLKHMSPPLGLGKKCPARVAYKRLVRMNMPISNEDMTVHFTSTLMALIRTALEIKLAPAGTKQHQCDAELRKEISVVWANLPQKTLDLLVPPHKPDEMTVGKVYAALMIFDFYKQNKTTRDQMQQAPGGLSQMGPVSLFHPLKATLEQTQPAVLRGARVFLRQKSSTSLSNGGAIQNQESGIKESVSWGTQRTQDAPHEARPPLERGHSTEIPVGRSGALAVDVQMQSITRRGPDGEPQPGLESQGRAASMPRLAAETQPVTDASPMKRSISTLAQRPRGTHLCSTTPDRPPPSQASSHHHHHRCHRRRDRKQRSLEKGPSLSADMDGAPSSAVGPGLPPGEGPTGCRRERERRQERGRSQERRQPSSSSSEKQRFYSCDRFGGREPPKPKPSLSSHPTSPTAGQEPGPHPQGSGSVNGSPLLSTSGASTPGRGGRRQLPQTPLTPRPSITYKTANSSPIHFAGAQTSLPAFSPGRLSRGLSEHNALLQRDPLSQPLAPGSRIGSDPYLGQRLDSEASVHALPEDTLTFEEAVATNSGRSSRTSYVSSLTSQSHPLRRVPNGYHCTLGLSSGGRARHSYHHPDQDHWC
T1 sequence (Q02410 whole entry): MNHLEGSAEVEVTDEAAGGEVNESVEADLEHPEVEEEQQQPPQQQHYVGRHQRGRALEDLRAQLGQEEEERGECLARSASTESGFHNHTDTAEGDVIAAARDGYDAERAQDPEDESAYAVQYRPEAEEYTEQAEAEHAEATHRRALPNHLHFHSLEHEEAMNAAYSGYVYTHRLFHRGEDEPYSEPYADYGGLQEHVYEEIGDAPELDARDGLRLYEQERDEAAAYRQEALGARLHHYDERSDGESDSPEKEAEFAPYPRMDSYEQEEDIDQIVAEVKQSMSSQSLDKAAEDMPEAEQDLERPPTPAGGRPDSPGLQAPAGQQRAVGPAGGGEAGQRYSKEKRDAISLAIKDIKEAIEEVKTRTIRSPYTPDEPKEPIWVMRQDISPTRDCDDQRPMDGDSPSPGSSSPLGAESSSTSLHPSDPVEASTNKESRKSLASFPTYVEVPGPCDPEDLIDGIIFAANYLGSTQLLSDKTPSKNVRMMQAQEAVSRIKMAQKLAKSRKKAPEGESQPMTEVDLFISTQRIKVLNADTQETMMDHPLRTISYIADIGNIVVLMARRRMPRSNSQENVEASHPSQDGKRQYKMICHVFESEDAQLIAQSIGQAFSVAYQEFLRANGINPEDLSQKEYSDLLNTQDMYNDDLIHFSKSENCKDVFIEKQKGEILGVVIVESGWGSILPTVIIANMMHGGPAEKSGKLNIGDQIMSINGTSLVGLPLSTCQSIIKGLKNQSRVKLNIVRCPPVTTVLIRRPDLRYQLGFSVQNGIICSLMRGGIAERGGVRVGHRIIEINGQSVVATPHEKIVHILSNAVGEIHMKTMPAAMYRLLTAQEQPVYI

[2] = molecular target: Large T antigen (Simian virus 40, UniProt P03070); type: functional, Betapolyomavirus macacae;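 also: Confirmatory-stage PubChem screen for compounds that inhibit SV40 T antigen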
[3] = molecular target: T1, Voltage-gated N-type calcium channel alpha-1B subunit/Amyloid beta A4 precursor protein-binding family A member 1; type: protein assay; remark: listed apart in the source
[4] = growth suppression of PTEN-null colon cells, dose response, cell-based, HCT116 PTEN knockout (AID 1047); type: functional;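 also: HCT116 colon tumor cells with PTEN knocked out; cells exposed to compound for 60 hours before readout; potency for loss of cell viability measured by luminescence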
[5] = growth suppression of beta-catenin-knockout colon cells, dose response, cell-based, HCT116, human colon tumor (AID 1045); type: functional;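 also: HCT116 colon tumor cells with beta catenin knocked out; cells exposed to compound for 60 hours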
[6] = molecular target: T2, Short transient receptor potential channel 4 (Mus musculus, UniProt Q9QUQ5); assay: mouse TRPC4 channel inhibitors, dose response, cell-based, HEK293 TRPC4/mu-opioid, Fluo-4 calcium (AID 434942); type: functional;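 also: potency of inhibitors blocking the TRPC4 calcium response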
T2 sequence (Q9QUQ5 whole entry): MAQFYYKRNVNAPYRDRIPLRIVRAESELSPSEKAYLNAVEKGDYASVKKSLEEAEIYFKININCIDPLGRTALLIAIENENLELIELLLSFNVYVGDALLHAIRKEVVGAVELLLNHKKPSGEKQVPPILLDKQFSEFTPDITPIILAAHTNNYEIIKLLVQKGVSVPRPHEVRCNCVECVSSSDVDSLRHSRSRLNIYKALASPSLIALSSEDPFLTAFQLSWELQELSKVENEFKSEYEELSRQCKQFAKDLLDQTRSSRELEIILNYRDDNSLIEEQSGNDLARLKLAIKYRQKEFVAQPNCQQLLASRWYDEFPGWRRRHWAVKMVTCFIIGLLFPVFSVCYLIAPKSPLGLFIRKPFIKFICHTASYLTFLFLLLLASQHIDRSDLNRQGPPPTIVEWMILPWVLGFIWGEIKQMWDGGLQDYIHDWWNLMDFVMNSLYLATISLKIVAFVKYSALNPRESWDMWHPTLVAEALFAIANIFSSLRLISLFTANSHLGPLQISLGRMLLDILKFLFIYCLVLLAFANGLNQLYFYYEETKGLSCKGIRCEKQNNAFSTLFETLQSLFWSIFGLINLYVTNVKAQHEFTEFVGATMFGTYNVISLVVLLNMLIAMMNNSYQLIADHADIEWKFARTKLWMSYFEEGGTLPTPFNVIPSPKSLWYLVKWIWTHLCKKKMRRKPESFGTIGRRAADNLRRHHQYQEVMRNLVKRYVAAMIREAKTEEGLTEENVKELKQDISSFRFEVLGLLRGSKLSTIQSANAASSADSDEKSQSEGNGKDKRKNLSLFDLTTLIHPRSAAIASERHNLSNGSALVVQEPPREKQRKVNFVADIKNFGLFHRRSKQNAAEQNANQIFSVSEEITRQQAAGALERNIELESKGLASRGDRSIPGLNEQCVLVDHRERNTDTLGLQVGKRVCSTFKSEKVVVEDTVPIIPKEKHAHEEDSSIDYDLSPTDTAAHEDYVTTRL

[7] = molecular target: Glyceraldehyde-3-phosphate dehydrogenase (Homo sapiens, UniProt P04406)
Chain of Glyceraldehyde-3-phosphate dehydrogenase (P04406 whole entry): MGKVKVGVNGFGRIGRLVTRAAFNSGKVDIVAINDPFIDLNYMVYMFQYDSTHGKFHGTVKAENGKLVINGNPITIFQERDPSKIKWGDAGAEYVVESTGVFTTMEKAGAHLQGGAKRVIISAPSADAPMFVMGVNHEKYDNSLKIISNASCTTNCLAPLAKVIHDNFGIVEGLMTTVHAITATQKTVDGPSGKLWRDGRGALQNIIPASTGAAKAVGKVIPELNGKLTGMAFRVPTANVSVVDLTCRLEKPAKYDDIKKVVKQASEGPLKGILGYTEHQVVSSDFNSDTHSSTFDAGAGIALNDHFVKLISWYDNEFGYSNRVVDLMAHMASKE

[8] = molecular target: Alkaline phosphatase, placental type (Homo sapiens, UniProt P05187); assay: PLAP enzyme inhibitors, confirmation, biochemical, luminescence (AID 1512); type: functional
Chain of Alkaline phosphatase, placental type (P05187 whole entry): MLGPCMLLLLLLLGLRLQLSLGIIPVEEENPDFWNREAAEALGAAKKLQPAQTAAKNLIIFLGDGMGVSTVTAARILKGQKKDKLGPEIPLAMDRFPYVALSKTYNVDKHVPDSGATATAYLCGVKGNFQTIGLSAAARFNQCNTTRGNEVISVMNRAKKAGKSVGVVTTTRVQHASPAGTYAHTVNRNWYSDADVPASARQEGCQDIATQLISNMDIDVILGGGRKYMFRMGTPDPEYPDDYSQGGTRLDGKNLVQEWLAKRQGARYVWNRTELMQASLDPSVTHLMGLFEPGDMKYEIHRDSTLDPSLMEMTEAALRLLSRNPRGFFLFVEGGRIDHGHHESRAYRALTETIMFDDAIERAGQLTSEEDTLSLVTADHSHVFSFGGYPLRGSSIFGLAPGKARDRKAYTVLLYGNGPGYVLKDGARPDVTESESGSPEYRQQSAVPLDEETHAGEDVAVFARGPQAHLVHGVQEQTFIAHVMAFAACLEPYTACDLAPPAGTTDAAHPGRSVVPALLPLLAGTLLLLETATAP

[9] = molecular target: T3, Alkaline phosphatase, tissue-nonspecific isozyme (Homo sapiens, UniProt P05186); assay: human TNAP enzyme inhibitors, SAR follow-up, biochemical, luminescent, dose response (AID 1056)
T3 sequence (P05186 whole entry): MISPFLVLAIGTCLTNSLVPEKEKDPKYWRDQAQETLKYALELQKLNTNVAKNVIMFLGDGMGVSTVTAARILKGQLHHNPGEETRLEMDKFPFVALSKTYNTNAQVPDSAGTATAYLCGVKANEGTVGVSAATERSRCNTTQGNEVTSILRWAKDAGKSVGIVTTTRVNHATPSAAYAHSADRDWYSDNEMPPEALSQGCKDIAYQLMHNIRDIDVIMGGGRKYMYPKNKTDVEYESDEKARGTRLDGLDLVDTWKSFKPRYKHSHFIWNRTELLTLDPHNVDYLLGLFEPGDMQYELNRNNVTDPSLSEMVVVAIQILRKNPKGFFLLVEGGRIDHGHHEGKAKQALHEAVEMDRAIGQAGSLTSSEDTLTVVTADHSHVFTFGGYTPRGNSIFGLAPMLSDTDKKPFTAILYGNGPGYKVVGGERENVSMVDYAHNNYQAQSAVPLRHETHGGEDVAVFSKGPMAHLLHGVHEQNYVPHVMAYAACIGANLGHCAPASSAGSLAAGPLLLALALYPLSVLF

[10] = tested on: HEK293; assay: NOD1 signaling inhibitors, primary screen, cell-based, luminescence, uHTS (AID 1578); type: functional; conditions: Homo sapiens
[11] = tested on: HEK293; assay: cells; type: functional, cell-based; conditions: Homo sapiens
[12] = tested on: HEK293; assay: cells; type: functional, cell-based; conditions: Homo sapiens; remark: listed apart in the source
[13] = molecular target: Nucleotide-binding oligomerization domain-containing protein 2 (Homo sapiens, UniProt Q9HC29); assay: NOD2 signaling inhibitors, cell-based, luminescence, uHTS, HEK293 (AID 1566); type: functional
Chain of Nucleotide-binding oligomerization domain-containing protein 2 (Q9HC29 whole entry, the tested form may be a part): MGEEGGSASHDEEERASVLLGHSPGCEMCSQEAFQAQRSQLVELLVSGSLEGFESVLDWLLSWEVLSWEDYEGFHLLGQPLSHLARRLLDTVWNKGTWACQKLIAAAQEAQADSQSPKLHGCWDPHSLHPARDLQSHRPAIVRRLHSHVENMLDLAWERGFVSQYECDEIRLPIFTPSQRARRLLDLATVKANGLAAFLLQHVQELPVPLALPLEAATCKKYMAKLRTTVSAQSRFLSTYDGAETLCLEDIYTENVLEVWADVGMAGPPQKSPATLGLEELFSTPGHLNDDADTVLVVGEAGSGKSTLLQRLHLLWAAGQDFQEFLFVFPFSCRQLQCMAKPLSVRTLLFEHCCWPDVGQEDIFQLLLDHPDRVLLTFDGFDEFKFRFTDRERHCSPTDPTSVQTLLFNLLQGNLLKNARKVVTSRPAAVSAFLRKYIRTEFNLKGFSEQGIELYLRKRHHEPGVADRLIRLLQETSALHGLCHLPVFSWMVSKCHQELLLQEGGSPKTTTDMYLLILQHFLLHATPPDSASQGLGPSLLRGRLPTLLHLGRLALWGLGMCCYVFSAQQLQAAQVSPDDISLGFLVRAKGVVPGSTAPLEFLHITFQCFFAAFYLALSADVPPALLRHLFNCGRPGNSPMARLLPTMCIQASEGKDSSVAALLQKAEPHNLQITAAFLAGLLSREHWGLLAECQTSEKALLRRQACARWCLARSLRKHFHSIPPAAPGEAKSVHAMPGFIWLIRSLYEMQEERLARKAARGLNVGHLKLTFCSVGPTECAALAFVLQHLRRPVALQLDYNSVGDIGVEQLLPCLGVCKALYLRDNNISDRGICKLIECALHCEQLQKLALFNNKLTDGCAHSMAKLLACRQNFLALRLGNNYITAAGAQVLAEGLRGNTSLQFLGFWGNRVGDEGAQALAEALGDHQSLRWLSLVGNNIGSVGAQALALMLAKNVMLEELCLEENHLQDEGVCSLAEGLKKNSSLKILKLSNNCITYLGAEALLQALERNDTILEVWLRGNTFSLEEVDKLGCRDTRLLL

[14] = tested on: HEK293; assay: NOD2 signaling inhibitors in MDP-stimulated cells, cell-based, uHTS, luminescence (AID 2001); type: functional; conditions: Homo sapiens
[15] = tested on: HEK293; assay: cells; type: functional, cell-based; conditions: Homo sapiens; remark: listed apart in the source
[16] = molecular target: T4, Heat shock factor protein 1 (Mus musculus, UniProt P38532); assay: HSF1 potentiators in luciferase reporter cells, confirmation, cell-based, NIH3T3, luminescence, dose retest (AID 435004); type: functional;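 also: stress induced by proteasome inhibitor MG132 added 30 min after compound; luciferase reporter driven by HSF1 response element in NIH3T3 cells; actives raise luminescence as potentiators of the MG132 stress response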
T4 sequence (P38532 whole entry): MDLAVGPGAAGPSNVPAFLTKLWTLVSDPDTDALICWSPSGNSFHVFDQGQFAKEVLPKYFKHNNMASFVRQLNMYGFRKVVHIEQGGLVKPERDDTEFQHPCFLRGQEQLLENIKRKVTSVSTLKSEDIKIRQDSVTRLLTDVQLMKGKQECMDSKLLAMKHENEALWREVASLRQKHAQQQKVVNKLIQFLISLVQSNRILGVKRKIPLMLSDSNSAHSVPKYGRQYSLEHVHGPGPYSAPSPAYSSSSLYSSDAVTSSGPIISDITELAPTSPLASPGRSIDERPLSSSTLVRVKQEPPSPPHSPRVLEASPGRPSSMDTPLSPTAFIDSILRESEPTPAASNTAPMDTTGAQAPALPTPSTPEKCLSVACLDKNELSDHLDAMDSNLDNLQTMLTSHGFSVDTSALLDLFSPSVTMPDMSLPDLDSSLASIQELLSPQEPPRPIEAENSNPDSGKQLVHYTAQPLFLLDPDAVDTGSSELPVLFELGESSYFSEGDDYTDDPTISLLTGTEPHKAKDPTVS

[17] = molecular target: T5, Microphthalmia-associated transcription factor (Homo sapiens, UniProt O75030); assay: TRPM1 promoter luciferase signal decrease, dose response, MITF inhibitor project, cell-based, SK-MEL-5, cherry-picked, set 3 (AID 493073); type: functional
T5 sequence (O75030 whole entry): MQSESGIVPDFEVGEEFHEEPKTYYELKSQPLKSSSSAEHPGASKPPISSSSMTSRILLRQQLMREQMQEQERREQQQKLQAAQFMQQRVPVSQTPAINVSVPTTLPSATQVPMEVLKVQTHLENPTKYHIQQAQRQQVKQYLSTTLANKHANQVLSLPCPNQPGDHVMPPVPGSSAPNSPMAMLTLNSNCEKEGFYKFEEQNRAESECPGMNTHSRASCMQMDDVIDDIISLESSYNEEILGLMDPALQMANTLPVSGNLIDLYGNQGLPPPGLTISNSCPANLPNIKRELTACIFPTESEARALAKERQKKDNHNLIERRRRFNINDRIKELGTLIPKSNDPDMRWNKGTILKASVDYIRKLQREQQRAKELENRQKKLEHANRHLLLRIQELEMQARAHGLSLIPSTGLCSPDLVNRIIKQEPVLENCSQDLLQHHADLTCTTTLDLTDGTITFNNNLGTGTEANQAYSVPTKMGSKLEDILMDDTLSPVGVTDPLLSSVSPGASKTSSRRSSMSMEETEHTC

[18] = molecular target: T6, Replicative DNA helicase DnaB (Mycobacterium tuberculosis, UniProt P9WMR3); assay: DnaB intein splicing inhibitors, dose response, biochemical, cell-free fluorescence (AID 449749); type: functional
T6 sequence (P9WMR3 whole entry): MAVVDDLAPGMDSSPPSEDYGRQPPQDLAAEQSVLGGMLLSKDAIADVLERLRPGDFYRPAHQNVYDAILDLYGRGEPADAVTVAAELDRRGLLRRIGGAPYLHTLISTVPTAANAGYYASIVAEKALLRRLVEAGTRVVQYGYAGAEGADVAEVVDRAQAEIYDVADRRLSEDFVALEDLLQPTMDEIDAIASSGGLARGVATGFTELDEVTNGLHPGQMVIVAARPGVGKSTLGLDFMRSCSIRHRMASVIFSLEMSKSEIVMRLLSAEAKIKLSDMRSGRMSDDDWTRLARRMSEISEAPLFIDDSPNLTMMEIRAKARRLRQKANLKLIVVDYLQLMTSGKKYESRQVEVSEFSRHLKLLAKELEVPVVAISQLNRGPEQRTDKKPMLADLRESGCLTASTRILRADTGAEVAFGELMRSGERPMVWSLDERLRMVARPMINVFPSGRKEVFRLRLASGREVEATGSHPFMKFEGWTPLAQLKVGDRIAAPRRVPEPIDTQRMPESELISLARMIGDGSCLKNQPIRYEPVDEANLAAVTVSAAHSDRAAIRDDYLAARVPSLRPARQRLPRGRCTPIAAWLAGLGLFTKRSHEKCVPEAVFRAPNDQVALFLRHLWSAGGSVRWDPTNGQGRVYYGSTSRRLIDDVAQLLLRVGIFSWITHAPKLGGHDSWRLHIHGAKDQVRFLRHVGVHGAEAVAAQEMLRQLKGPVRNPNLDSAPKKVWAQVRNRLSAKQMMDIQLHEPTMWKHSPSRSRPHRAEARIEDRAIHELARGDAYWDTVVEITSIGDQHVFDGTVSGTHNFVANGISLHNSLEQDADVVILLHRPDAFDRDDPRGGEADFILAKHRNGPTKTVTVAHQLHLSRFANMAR

[19] = molecular target: T7, Protein RecA (Mycobacterium tuberculosis, UniProt P9WHJ3); assay: Fluorescence Cell-Free Homogeneous Dose Retest to Identify Inhibitors of RecA-Intein Splicing Activity. [Related pubchem assays (depositor defined):AID2097, AID2223, AID489010, AID492950]; type: functional
T7 sequence (P9WHJ3 whole entry): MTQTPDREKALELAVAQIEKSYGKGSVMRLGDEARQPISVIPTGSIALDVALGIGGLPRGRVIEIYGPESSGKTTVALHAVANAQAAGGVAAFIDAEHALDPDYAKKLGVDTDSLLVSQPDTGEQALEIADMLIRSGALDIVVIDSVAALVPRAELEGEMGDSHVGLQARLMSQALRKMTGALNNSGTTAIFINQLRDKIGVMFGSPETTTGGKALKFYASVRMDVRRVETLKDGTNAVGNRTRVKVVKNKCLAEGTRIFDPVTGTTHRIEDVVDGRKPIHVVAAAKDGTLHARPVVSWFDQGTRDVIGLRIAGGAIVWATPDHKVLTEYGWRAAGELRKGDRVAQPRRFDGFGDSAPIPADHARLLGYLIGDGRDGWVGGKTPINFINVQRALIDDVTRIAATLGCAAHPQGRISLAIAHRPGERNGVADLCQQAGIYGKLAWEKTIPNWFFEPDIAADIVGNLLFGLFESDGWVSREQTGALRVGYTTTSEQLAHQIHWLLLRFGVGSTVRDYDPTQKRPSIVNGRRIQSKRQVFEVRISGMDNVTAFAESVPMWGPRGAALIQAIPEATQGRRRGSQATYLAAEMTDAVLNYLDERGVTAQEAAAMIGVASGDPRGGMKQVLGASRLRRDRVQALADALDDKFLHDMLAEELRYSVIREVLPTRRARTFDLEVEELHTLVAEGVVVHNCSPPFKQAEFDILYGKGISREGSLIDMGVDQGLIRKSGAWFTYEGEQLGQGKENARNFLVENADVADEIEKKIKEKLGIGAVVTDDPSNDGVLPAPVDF

[20] = cytotoxicity in HPDE-C7 cells, cell-based, fluorescence, HTS (AID 430); type: functional; conditions: Homo sapiens
[21] = cytotoxicity in KRAS-transformed pancreatic duct cells, primary screen, cell-based, fluorescence, HTS (AID 431); type: functional; conditions: Homo sapiens;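 also: cell line used: HPDE-C7K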

| Compound | IC50 [8] | IC50 [9] | EC50 [10] | IC50 [11] | IC50 [12] | EC50 [13] | IC50 [14] | IC50 [15] | other results |
| --- | --- | --- | --- | --- | --- | --- | --- | --- | --- |
| Cc1cc(C)c2c(=O)n(CC(=O)NCCCN3CCN(c4ccccc4F)CC3)sc2n1 |  |  |  |  |  |  |  |  | IC50 [1]: 12.4 µM (active); IC50 [2]: 14.3 µM (active); IC50 [3]: 48.8 µM (active); EC50 [4]: 18 µM (active); EC50 [5]: 17 µM (active); EC50 [6]: 0.0013 µM (active) |
| CCS(=O)(=O)c1nc(NC(C)=O)n[nH]1 | > 100 µM (inactive) | 94.8 µM (active) and > 100 µM (inactive) |  |  |  |  |  |  | IC50 [7]: > 100 µM (not active) |
| O=C(CSc1nnc(-c2ccncc2)n1-c1ccc(Cl)cc1)c1ccc(O)c(O)c1 | 6.63 µM (active) | 38.7 µM (active) |  |  |  |  |  |  |  |
| Cc1ccc(C2=NN(C(=O)CCl)C(c3cccs3)C2)o1 (centres undefined) |  |  | 8.03 µM (active) | 2.11 µM (active) | > 20 µM (inactive) | 8.81 µM (active) | 4.05 µM (active) | > 20 µM (inactive) | EC50 [16]: 35.7 µM (inconclusive); AC50 [17]: 6.1 µM (active); AC50 [18]: 1.52 µM (active); EC50 [19]: 1.51 µM (active) |
| Cc1cc(NC(=O)CCS(=O)(=O)c2nc(-c3ccccc3)cc(C(F)(F)F)n2)no1 |  |  | > 20 µM (inactive) | 6.11 µM (active) | > 20 µM (inactive) | > 20 µM (inactive) | 8.24 µM (inactive) | > 20 µM (inactive) | EC50 [20]: 9.01 µM (active); EC50 [21]: > 20 µM (not active) |
